Data on two substances can be found in patent US20130252821A1, “METHODS AND COMPOSITIONS FOR THE TREATMENT AND DIAGNOSIS OF DISEASES CHARACTERIZED BY VASCULAR LEAK, HYPOTENSION, OR A PROCOAGULANT STATE” (Beth Israel Deaconess Medical Center, Inc., priority 2005, published 2013).

For one data set, the system named is VEGF. As to the kind of experiment: Serial free VEGF levels in patients on HD IL-2. The class given is in vivo, human. Particulars: four patients, single bevacizumab infusion two weeks prior to HD IL-2. An excerpt:
Over a 6 month period at Beth Israel Deaconess Medical Center we prospectively collected discarded serum and plasma samples from oncology patients receiving high dose IL-2. […] After detailing these promising results, we then collected bloods before IL-2 infusion and with each successive days morning labs. Whenever possible, we also obtained discarded blood from all follow up outpatient appointments. All identifying information was removed and data was encoded to protect patient privacy. Clinical data was collected on each patient by chart review. This study was approved by the institutional IRB.

Data set [1] deals with p190RhoGAP. Put plainly: siRNA knockdown of p190RhoGAP in HMVEC-L (immunoblot). The class given is cell-based, human. Here is the method:
(§1) [A] is abluminal concentration; t is time in seconds; A is area of membrane in cm^2; V is volume of abluminal chamber; and [L] is luminal concentration. siRNA Transfection: HMVEC-Ls were seeded and control small interfering RNA (siRNA) (Ambion, Ausin, Tex.) or siRNA directed to human p190RhoGAP (5′-[…]-3′ SEQ ID NO: 5 and 5′-[…]-3′ SEQ ID NO: 6) was transfected using SilentFect Lipid reagent (Bio-Rad) according to the manufacturer's instructions. The cells were used for each experiment 3 days after transfection. Almost 90-100% cells were transfected with siRNA (checked by fluorescent labeled siRNA). Down-regulation of p190RhoGAP was verified by immunoblotting. We tested two different siRNA for the experiment and obtained similar results.

A further data set relates to RhoA. As to the kind of experiment: Rho activity assay (pull-down) in HMVEC-L. To be noted: p190RhoGAP siRNA. Format: cell-based, human. Here is the method: (§2) These were performed and quantified using the commercially available kit according to the manufacturer's instruction (Cytoskeleton, Denver, Colo.). After signal starvation, HMVEC-L were treated with vehicle, Ang-1 (100 ng/ml) with or without inhibitor for the indicated time and harvested with lysis buffer. Following a brief centrifugation to remove cell debris, lysates from the cells containing equivalent protein concentrations were incubated for 60 minutes with 40 μL slurry of a GST-fusion protein composed of Rac1 or RhoA effector proteins coupled to agarose beads. After washing with lysis buffer, samples were subjected to immunoblotting and detected with anti-Rac1 or anti-RhoA antibody (Santa Cruz Biotechnology, Santa Cruz, Calif.). Whole cell lysates were also run to determine the total amount of Rac1 or RhoA protein.

In a further data set the test system is HMVEC-L monolayer. Put plainly: Measurement of endothelial permeability in vitro (FITC-albumin). Format: cell-based, human. To be noted: p190RhoGAP siRNA. Here is the method: Coster Transwell membranes (Corning Inc. Corning, N.Y.) were coated with 0.5% Gelatin and cells were grown until confluence. Vehicle or proteins with FITC-albumin (1 mg/ml) was added to the luminal chamber for 4 hours, and samples were taken from both the luminal and abluminal chamber for fluorometry analysis. The readings were converted with the use of a standard curve to albumin concentration. These concentrations were then used in the following equation to determine the permeability coefficient of albumin (Pa).
as §1

The subject of data set [2] is p190RhoGAP. As to the kind of experiment: In vivo delivery of siRNA, p190RhoGAP in mouse lung (Western). To be noted: 10 μg siRNA, hydrodynamic tail vein delivery. Here is the method: Mice were treated as above and lungs were harvested, fixed in 10% formalin, embedded in paraffin, sectioned, and stained with hematoxilin and eosin. In Vivo Delivery of siRNA: Delivery of siRNA into mice was performed by TransIT® Hydrodynamic delivery solution (Mires, Madision, Wis.) per the manufacturer's instruction. Mice were injected with either 10 μg control siRNA or 10 μg p190RhoGAP siRNA in 2 nil delivery solution injected into the tail vein over 7 seconds. Four days later, p190RhoGAP knockdown was confirmed by lysing organs in RIPA buffer and performing Western analysis as outlined above. In vivo permeability and histological examination were performed as described above.

Data set [3] concerns mice (female FVB strain), lung. Put plainly: In vivo permeability assay (Evans blue, LPS). Further details: species or system mouse. To be noted: p190RhoGAP siRNA, endotoxin plus Ang-1. Here is the method:
Mice (8-12 weeks old, female FVB strain) were pretreated with Ang-1 (10 mcg, ip). 8 hours after the first Ang-1 injection, the second dose of Ang-1 (10 mcg, ip) and LPS (100 μg, ip) were co-injected. Lung permeability was assessed 16 hours after the second injection. Mice were anesthetized with Avertin (2,2,2-Tribromoethanol) and 2% Evans blue (50 μl) was then injected into the retro-orbital sinus. Ten minutes after Evans blue injection, mice were sacrificed and perfused with PBS with 2 mM EDTA for 10 minutes through a cannula placed in the right ventricle. […] Organs were then harvested and homogenized in 1.5 nil formamide. Evans blue was extracted by incubating the samples at 70° C. for 24 hours, and the concentration of Evans blue was estimated by dual-wavelength spectrophotometer (620 and 740 nm). The following formula was used to correct optical densities (E) for contamination with heme pigments: E620 (corrected)=E620−(1.426XE740+0.030).

The next data set relates to Rac1. Put plainly: Rac1 activity assay (pull-down). Format: cell-based, human. Particulars: p190RhoGAP siRNA. Here is the method:
as §2

Consider “bevacizumab: a neutralizing antibody to VEGF”, for which, in the data set with VEGF, the “free VEGF levels” value was “low throughout protocol”.

Turning to “p190RhoGAP siRNA: siRNA directed to human p190RhoGAP (SEQ ID NO: 5 and 6) (chain 1 GGAUUGUGUGGAAUGUAAG; chain 2 CUUACAUUCCACACAAUCC; listed as RNA, chemistry not given here) [reference compound]”, the “block of p190RhoGAP expression” value in the data set with p190RhoGAP [1] was 90%. The “effect on Ang-1-induced RhoA inhibition” value with RhoA is on record as “abolish”. Also, in the data set on HMVEC-L monolayer, the “effect on basal permeability” value is “little effect”. Besides, the “effect on rescue by Ang-1” value in the data set with HMVEC-L monolayer (endotoxin plus Ang-1) is listed as “prevent the rescue effect of Ang-1”. Also, in the data set on p190RhoGAP [2], the “p190RhoGAP expression in lung tissue” value was “diminished p190RHoGAP expression”. Also, in data set [3], the “effect on protection by Ang-1 in the lung” value was “sufficient to block the protective effect of Ang-1”. Moreover, the “effect on Ang-1-induced Rac1 activation” value in the data set on Rac1 is given as “did not affect”.
